PubChem BioAssay (NCI)
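All cell lines were grown in 96-well plates and treated with compound for 48 hours. At the GI50, growth is halved. TGI: total growth inhibition.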

Experiments:
Experiment in all cases: NCI-60 cell line screen, 48 h
CAKI-1 renal = test system: CAKI-1 renal
COLO 205 colon = test system: COLO 205 colon
HCT-116 colon = test system: HCT-116 colon
HL-60(TB) leukemia = test system: HL-60(TB) leukemia
HOP-62 NSCLC = test system: HOP-62 NSCLC
HOP-92 NSCLC = test system: HOP-92 NSCLC
HT29 colon = test system: HT29 colon
MDA-MB-231 breast = test system: MDA-MB-231 breast
OVCAR-4 ovarian = test system: OVCAR-4 ovarian
UACC-257 melanoma = test system: UACC-257 melanoma

Compound	GI50 (CAKI-1 renal)	TGI (CAKI-1 renal)	GI50 (COLO 205 colon)	TGI (COLO 205 colon)	GI50 (HCT-116 colon)	TGI (HCT-116 colon)	GI50 (HL-60(TB) leukemia)	TGI (HL-60(TB) leukemia)	GI50 (HOP-62 NSCLC)	TGI (HOP-62 NSCLC)	GI50 (HOP-92 NSCLC)	TGI (HOP-92 NSCLC)	GI50 (HT29 colon)	TGI (HT29 colon)	GI50 (MDA-MB-231 breast)	TGI (MDA-MB-231 breast)	GI50 (OVCAR-4 ovarian)	TGI (OVCAR-4 ovarian)	GI50 (UACC-257 melanoma)	TGI (UACC-257 melanoma)
O=C(Nc1ncc(Cc2ccccc2)s1)c1ccc2c(c1)OCCCO2	0.526 µM	> 100 µM	0.579 µM	> 100 µM	0.468 µM	> 100 µM	0.33 µM	> 51.6 µM	0.73 µM	> 100 µM	> 24 µM	> 100 µM	0.361 µM	> 100 µM	2.77 µM	> 100 µM	5.22 µM	> 100 µM	1.61 µM	> 100 µM
COc1cc([C@@H]2c3cc4c(cc3C(Br)[C@H]3COC(=O)[C@H]23)OCO4)cc(OC)c1OC (some centres undefined)	0.117 µM	> 48.4 µM	0.189 µM	0.399 µM	0.207 µM	0.784 µM	0.223 µM	–	0.436 µM	> 100 µM	0.529 µM	> 30.1 µM	0.289 µM	2.85 µM	0.296 µM	–	0.541 µM	> 100 µM	0.214 µM	> 100 µM
CCCCCCCCCCCCCCCC(=O)OCC1OC(n2cnc3c(=S)nc(N)[nH]c32)C(OC(=O)CCCCCCCCCCCCCCC)C1OC(=O)CCCCCCCCCCCCCCC (centres undefined)	1.05 µM	> 14.8 µM	7.39 µM	35.8 µM	1.8 µM	> 50 µM	> 35.6 µM	> 50 µM	1.78 µM	> 35 µM	3.85 µM	> 50 µM	3.22 µM	> 50 µM	2.66 µM	> 22.1 µM	> 19.5 µM	> 50 µM	> 50 µM	> 50 µM
COc1ccc(Nc2ccnc(NCCNc3ccnc4cc(Cl)ccc34)n2)cc1	1.73 µM	4.57 µM	1.45 µM	3.24 µM	0.533 µM	3.78 µM	2.48 µM	7.06 µM	3.56 µM	18.4 µM	1 µM	6.34 µM	0.546 µM	8.28 µM	2.01 µM	6.71 µM	1.45 µM	13.8 µM	1.97 µM	4.25 µM
C[C@]12CC/C(=N\N)C[C@@H]1CC[C@@H]1[C@@H]2CC[C@]2(C)/C(=N/N)CC[C@@H]12	> 100 µM	> 100 µM	–	–	> 100 µM	> 100 µM	> 100 µM	> 100 µM	> 100 µM	> 100 µM	> 100 µM	> 100 µM	> 100 µM	> 100 µM	> 100 µM	> 100 µM	> 100 µM	> 100 µM	> 100 µM	> 100 µM
COc1cc2c(c(OC)c1OC)-c1ccc(NNC(=S)N(Cc3cccc(C[N+](Cc4cccc(CNC56CC7CC(CC(C7)C5)C6)c4)(Cc4cccc(CNC56CC7CC(CC(C7)C5)C6)c4)Cc4cccc(CN(C(=S)NNc5ccc6c(cc5=O)[C@@H](NC(C)=O)CCc5cc(OC)c(OC)c(OC)c5-6)C56CC7CC(CC(C7)C5)C6)c4)c3)C34CC5CC(CC(C5)C3)C4)c(=O)cc1[C@@H](NC(C)=O)CC2 (some centres undefined)	3.2 µM	7.37 µM	0.683 µM	1.52 µM	0.896 µM	3.07 µM	0.168 µM	1.03 µM	2.14 µM	7.43 µM	0.897 µM	4.08 µM	0.958 µM	2.81 µM	0.994 µM	2.99 µM	2.17 µM	8.94 µM	4.51 µM	10.3 µM
Cc1nc2cncc(C#Cc3cncc(C(=O)Nc4ccc(CN5CCN(C)CC5)c(C(F)(F)F)c4)c3)c2nc1C	0.438 µM	3.1 µM	0.196 µM	5.96 µM	0.248 µM	2.22 µM	0.237 µM	1.38 µM	0.839 µM	5 µM	0.204 µM	1.13 µM	0.205 µM	7.56 µM	0.229 µM	1.03 µM	0.162 µM	6.74 µM	0.549 µM	3.56 µM
CCN(CC)CCOc1ccc(Nc2ncc3cc(-c4c(Cl)cccc4Cl)c(=O)n(CCOC)c3n2)cc1	0.0149 µM	0.174 µM	0.148 µM	2.43 µM	0.159 µM	1.16 µM	0.496 µM	2.06 µM	0.0715 µM	7.05 µM	0.0163 µM	0.322 µM	0.105 µM	2.27 µM	0.0432 µM	0.813 µM	0.946 µM	6.99 µM	0.881 µM	4.58 µM
OCc1cccc(-c2ccc3ncc(-c4nc(NC5CC5)ncc4F)n3c2)c1	0.153 µM	1.65 µM	0.242 µM	0.656 µM	0.182 µM	> 100 µM	0.243 µM	0.708 µM	0.266 µM	2.7 µM	0.303 µM	0.901 µM	0.329 µM	> 100 µM	0.286 µM	1.04 µM	0.342 µM	1.77 µM	0.372 µM	1.79 µM
Cc1cc(=O)c2cc(N=Cc3ccc([N+](=O)[O-])o3)ccc2o1	–	> 100 µM	–	> 100 µM	–	> 100 µM	–	> 100 µM	–	> 100 µM	–	> 100 µM	–	> 100 µM	–	> 100 µM	–	> 100 µM	–	> 100 µM
OCCCCC#Cc1ccccc1C#Cc1ccccc1F	24.2 µM	51.4 µM	16.4 µM	31.3 µM	16.2 µM	29.9 µM	22.2 µM	44.9 µM	12 µM	26.1 µM	22 µM	64.2 µM	52 µM	> 100 µM	17 µM	36.6 µM	> 100 µM	> 100 µM	18.9 µM	39.2 µM
CCOCC(=O)N[C@H]1CCc2cc(OC)c(OC)c(OC)c2-c2ccc(SC)c(=O)cc21	–	> 45.8 µM	–	< 0.01 µM	–	2.39 µM	–	< 0.0347 µM	–	> 100 µM	–	> 100 µM	–	–	–	2.31 µM	–	> 100 µM	–	> 100 µM
O=C(Nc1c(Cl)cc([N+](=O)[O-])cc1Cl)C(=O)C1C(=O)NC(=S)NC1=O	–	> 100 µM	–	–	–	> 100 µM	–	> 100 µM	–	> 100 µM	–	> 100 µM	–	> 100 µM	–	> 100 µM	–	> 100 µM	–	> 100 µM
